Key:
Experiment in all cases: two-electrode voltage clamp, Xenopus oocytes
Assay type in all cases: cell-based
CmedOR32/ORco = molecular target: T1, CmedOR32/ORco (Cnaphalocrocis medinalis, UniProt A0A1B2G2M9); conditions: agonist; with CmedORco; -80 mV; pH 7.5; 15 s stimulus; concentration contradictory (text 0.1 μM, figure legend 10^-4 M)
T1 construct: full ORF cloned in pT7Ts; cRNA co-injected with CmedORco in Xenopus oocytes; with Odorant receptor coreceptor
T1 sequence (A0A1B2G2M9 1-389): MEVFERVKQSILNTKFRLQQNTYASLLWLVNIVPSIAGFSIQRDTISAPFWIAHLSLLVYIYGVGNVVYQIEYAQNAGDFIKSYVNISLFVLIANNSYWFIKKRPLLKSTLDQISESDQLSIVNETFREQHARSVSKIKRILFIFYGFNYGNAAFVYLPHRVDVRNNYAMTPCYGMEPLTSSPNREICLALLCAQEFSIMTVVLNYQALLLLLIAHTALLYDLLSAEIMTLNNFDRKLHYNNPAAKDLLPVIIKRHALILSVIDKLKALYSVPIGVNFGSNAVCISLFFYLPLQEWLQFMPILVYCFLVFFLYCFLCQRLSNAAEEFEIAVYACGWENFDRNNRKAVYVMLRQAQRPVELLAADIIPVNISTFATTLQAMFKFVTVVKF
T1 sequence (H9XFD5 1-473 partner): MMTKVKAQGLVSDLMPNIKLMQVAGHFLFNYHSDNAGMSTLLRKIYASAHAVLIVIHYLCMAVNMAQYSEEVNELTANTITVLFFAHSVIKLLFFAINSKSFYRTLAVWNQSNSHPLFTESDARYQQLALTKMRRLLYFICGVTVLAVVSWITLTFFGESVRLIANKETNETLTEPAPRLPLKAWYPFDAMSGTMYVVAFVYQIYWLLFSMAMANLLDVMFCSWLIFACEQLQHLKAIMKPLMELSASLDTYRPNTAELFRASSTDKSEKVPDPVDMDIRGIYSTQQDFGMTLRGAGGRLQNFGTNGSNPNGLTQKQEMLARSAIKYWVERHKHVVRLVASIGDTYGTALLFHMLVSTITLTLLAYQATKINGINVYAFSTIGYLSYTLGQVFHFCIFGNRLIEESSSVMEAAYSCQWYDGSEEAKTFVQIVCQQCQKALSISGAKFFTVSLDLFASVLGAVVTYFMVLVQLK

CmedOR31/ORco = molecular target: T2, CmedOR31/ORco (Cnaphalocrocis medinalis, UniProt A0A1B2G2M5); conditions: agonist; with CmedORco; -80 mV; pH 7.5; 15 s stimulus; concentration contradictory (text 0.1 μM, figure legend 10^-4 M)
T2 construct: full ORF cloned in pT7Ts; cRNA co-injected with CmedORco in Xenopus oocytes; with Odorant receptor coreceptor
T2 sequence (A0A1B2G2M5 1-408): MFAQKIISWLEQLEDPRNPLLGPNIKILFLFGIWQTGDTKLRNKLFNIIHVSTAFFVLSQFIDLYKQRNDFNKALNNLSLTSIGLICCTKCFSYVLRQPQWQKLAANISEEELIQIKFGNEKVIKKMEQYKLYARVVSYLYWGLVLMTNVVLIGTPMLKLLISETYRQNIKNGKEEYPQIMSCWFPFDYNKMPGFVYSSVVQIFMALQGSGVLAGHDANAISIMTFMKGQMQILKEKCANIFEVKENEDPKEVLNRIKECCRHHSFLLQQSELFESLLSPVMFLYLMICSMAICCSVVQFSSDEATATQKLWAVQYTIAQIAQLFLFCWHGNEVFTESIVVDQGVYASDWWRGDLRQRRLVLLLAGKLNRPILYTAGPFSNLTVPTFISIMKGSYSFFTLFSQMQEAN
T2 sequence (H9XFD5 1-473 partner): T1 sequence (H9XFD5 1-473 partner)

CmedOR1/ORco [1] = molecular target: T3, CmedOR1/ORco (Cnaphalocrocis medinalis, UniProt A0A0U3A934); conditions: agonist, with CmedORco, -80 mV, pH 7.5, 15 s stimulus, concentration contradictory (text 0.1 μM, figure legend 10^-4 M)
T3 construct: gene or1; full ORF cloned in pT7Ts; cRNA co-injected with CmedORco in Xenopus oocytes; with Odorant receptor coreceptor
T3 sequence (A0A0U3A934 1-448): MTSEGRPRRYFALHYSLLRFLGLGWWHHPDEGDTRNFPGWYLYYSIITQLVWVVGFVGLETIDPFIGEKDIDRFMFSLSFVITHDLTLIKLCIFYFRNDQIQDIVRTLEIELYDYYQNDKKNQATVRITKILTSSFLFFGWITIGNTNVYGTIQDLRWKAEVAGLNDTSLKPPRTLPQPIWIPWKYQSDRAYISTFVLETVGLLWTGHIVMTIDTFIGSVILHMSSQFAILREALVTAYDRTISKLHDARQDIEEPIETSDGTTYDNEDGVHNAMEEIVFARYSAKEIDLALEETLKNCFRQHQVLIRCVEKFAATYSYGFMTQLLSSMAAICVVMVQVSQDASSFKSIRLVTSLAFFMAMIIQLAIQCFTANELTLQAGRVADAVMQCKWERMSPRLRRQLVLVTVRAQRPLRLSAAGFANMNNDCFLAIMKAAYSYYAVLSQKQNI
T3 sequence (H9XFD5 1-473 partner): T1 sequence (H9XFD5 1-473 partner)

CmedOR1/ORco [2] = molecular target: T3, CmedOR1/ORco; conditions: agonist; with CmedORco; -80 mV; pH 7.5; 15 s stimulus; 10^-4 M (b31 also prints 0.1 μM)

| Structure (SMILES) | inward current (CmedOR32/ORco) | further results |
| --- | --- | --- |
| CCC/C=C/C=O [E2-hexenal] | plant foliar odorants cis-3-hexenyl acetate, E2-hexenal, and β-caryophyllene |  |
| CCCC(=O)OCC [Ethyl butyrate] | floral volatile compounds methyl 2-methoxybenzoate, β-myrcene, and ethyl butyrate |  |
| CC(C)=CCC/C(C)=C/CO [Geraniol] |  | inward current (CmedOR31/ORco): 128 ± 16 nA |
| C=CC(C)(O)CCC=C(C)C (stereo not shown) [Linalool] |  | inward current (CmedOR1/ORco [1]): 64 ± 5 nA |
| COC(=O)c1ccccc1OC [Methyl 2-methoxybenzoate] | floral volatile compounds methyl 2-methoxybenzoate, β-myrcene, and ethyl butyrate |  |
| OCCc1ccccc1 [Phenethyl alcohol] |  | inward current (CmedOR1/ORco [1]; printed as two isomers, phenethyl alcohol and 2-phenethyl alcohol): 130 ± 10 nA |
| O=CCc1ccccc1 [Phenylacetaldehyde] |  | inward current at 10^-4 M (CmedOR1/ORco [2]): 3200 ± 86 nA |
| CC/C=C\CCOC(C)=O [cis-3-Hexenyl acetate] | CmedOR32 showed nonspecific responses to plant foliar odorants cis-3-hexenyl acetate |  |
| C=C1CC/C=C(\C)CC[C@@H]2[C@@H]1CC2(C)C [β-Caryophyllene] | plant foliar odorants cis-3-hexenyl acetate, E2-hexenal, and β-caryophyllene |  |
| C=CC(=C)CCC=C(C)C [β-Myrcene] | floral volatile compounds methyl 2-methoxybenzoate, β-myrcene, and ethyl butyrate |  |

Reference: publication PMC10744336, “Functional Identification of Olfactory Receptors of Cnaphalocrocis medinalis (Lepidoptera: Crambidae) for Plant Odor” (Insects, 2023)
